Results from ChEMBL document CHEMBL1129537, “The squalestatins: inhibitors of squalene synthase. Enzyme inhibitory activities and in vivo evaluation of C3-modified analogues” (J Med Chem, 1996).

Legend:
Squalene synthase = molecular target: T1, Squalene synthase (Rattus norvegicus, UniProt Q02769); assay: In vitro inhibitory activity against Squalene synthase from rats
T1 sequence (Q02769 whole entry): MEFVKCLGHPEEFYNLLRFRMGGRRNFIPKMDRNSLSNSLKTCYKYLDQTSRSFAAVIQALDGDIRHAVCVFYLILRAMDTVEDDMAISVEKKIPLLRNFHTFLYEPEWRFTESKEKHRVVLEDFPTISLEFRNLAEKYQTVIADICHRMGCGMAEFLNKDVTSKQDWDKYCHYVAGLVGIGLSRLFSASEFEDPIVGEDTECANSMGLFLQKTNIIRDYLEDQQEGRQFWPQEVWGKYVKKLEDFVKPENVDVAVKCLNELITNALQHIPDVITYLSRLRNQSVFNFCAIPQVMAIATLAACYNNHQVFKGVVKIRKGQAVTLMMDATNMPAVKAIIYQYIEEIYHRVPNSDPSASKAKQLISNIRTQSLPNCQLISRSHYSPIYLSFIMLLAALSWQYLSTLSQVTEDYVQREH

[1] = Effect on % of cholesterol reduction measured on serum cholesterol level in marmosets after single iv dose 10 mg/kg on day 3; assay type: functional, Callitrichinae
[2] = Effect on % of cholesterol reduction measured on serum cholesterol level in marmosets after single iv dose 16.7 mg/kg on day 2; assay type: functional, Callitrichinae
[3] = Effect on % of cholesterol reduction measured on serum cholesterol level in marmosets after single iv dose 50 mg/kg on day 7; assay type: functional, Callitrichinae
[4] = Effect on % of cholesterol reduction measured on serum cholesterol level in marmosets after single iv dose 30 mg/kg on day 3; assay type: functional, Callitrichinae
[5] = Effect on % of cholesterol reduction measured on serum cholesterol level in marmosets after single iv dose 10 mg/kg on day 2; assay type: functional, Callitrichinae
[6] = Effect on % of cholesterol reduction measured on serum cholesterol level in marmosets after single iv dose 50 mg/kg on day 3; assay type: functional, Callitrichinae
[7] = Effect on % of cholesterol reduction measured on serum cholesterol level in marmosets after single iv dose 16.7 mg/kg on day 3; assay type: functional, Callitrichinae
[8] = Effect on % of cholesterol reduction measured on serum cholesterol level in marmosets after single iv dose (3 times a day for 3 days) 16.7 mg/kg on day 7; assay type: functional, Callitrichinae
[9] = Effect on % of cholesterol reduction measured on serum cholesterol level in marmosets after single iv dose 10 mg/kg on day 7; assay type: functional, Callitrichinae
[10] = Effect on % of cholesterol reduction measured on serum cholesterol level in marmosets after single iv dose 30 mg/kg on day 2; assay type: functional, Callitrichinae
[11] = Effect on % of cholesterol reduction measured on serum cholesterol level in marmosets after single iv dose 30 mg/kg on day 7; assay type: functional, Callitrichinae
[12] = Effect on % of cholesterol reduction measured on serum cholesterol level in marmosets after single iv dose 50 mg/kg on day 2; assay type: functional, Callitrichinae

In the case of `C=C(CC[C@]12O[C@H](CNC(N)=O)[C@@](O)(C(=O)O)[C@](C(=O)O)(O1)[C@H](OC(=O)/C=C/[C@@H](C)C[C@@H](C)CC)[C@H]2O)[C@@H](OC(C)=O)[C@H](C)Cc1ccccc1`, the IC50 (Squalene synthase) is reported as 3 nM.

In the case of `C=C(CC[C@]12O[C@H](COC)[C@@](O)(C(=O)O)[C@](C(=O)O)(O1)[C@H](O)[C@H]2O)[C@@H](OC(C)=O)[C@H](C)Cc1ccccc1`, the IC50 (Squalene synthase) is reported as > 1000 nM.

With `C=C(CC[C@]12O[C@H](CN)[C@@](O)(C(=O)O)[C@](C(=O)O)(O1)[C@H](O)[C@H]2O)[C@@H](OC(C)=O)[C@H](C)Cc1ccccc1` the IC50 (Squalene synthase) was > 1000 nM.

In the case of `C=C(CC[C@]12O[C@H](CN)[C@@](O)(C(=O)O)[C@](C(=O)O)(O1)[C@H](OC(=O)/C=C/[C@@H](C)C[C@@H](C)CC)[C@H]2O)[C@@H](OC(C)=O)[C@H](C)Cc1ccccc1`, the IC50 (Squalene synthase) is reported as 4 nM.

With `C=C(CC[C@]12O[C@H](CN(C)C)[C@@](O)(C(=O)O)[C@](C(=O)O)(O1)[C@H](OC(=O)/C=C/[C@@H](C)C[C@@H](C)CC)[C@H]2O)[C@@H](OC(C)=O)[C@H](C)Cc1ccccc1` the IC50 (Squalene synthase) was 10 nM.

`C=C(CC[C@]12O[C@H](COC)[C@@](O)(C(=O)O)[C@](C(=O)O)(O1)[C@H](OC(=O)/C=C/[C@@H](C)C[C@@H](C)CC)[C@H]2O)[C@@H](OC(C)=O)[C@H](C)Cc1ccccc1` gave an IC50 (Squalene synthase) of 13 nM.

For `C=C(CC[C@]12O[C@H](CNC(N)=O)[C@@](O)(C(=O)O)[C@](C(=O)O)(O1)[C@H](O)[C@H]2O)[C@@H](OC(C)=O)[C@H](C)Cc1ccccc1`, the IC50 (Squalene synthase) was > 1000 nM.

In the case of `C=C(CC[C@]12O[C@H](CNS(=O)(=O)C(F)(F)F)[C@@](O)(C(=O)O)[C@](C(=O)O)(O1)[C@H](O)[C@H]2O)[C@@H](OC(C)=O)[C@H](C)Cc1ccccc1`, the IC50 (Squalene synthase) is reported as 1000 nM.

With `C=C(CC[C@]12O[C@H](CN=C(N)N)[C@@](O)(C(=O)O)[C@](C(=O)O)(O1)[C@H](OC(=O)/C=C/[C@@H](C)C[C@@H](C)CC)[C@H]2O)[C@@H](OC(C)=O)[C@H](C)Cc1ccccc1` the IC50 (Squalene synthase) was 65 nM.

Compound `C=C(CC[C@]12O[C@H](C(C)=O)[C@@](O)(C(=O)O)[C@](C(=O)O)(O1)[C@H](OC(=O)/C=C/[C@@H](C)C[C@@H](C)CC)[C@H]2O)[C@@H](OC(C)=O)[C@H](C)Cc1ccccc1` has an IC50 (Squalene synthase) of 11 nM.

`C=C(CC[C@]12O[C@H](CO)[C@@](O)(C(=O)O)[C@](C(=O)O)(O1)[C@H](OC(=O)/C=C/[C@@H](C)C[C@@H](C)CC)[C@H]2O)[C@@H](OC(C)=O)[C@H](C)Cc1ccccc1` gave a Reduction [1] of 2%, a Reduction [2] of 47% and a Reduction [3] of 28%. It also gave a Reduction [4] of 20%, a Reduction [5] of 5% and a Reduction [6] of 21%. It also gave a Reduction [7] of 62%, a Reduction [8] of 32% and a Reduction [9] of 14%. It also gave a Reduction [10] of 30%, a Reduction [11] of 16% and a Reduction [12] of 31%.

`C=C(CC[C@]12O[C@H](C(C)=O)[C@@](O)(C(=O)O)[C@](C(=O)O)(O1)[C@H](O)[C@H]2O)[C@@H](OC(C)=O)[C@H](C)Cc1ccccc1` showed an IC50 (Squalene synthase) of 500 nM.

Work on `C=C(CC[C@]12O[C@H](CNS(=O)(=O)C(F)(F)F)[C@@](O)(C(=O)O)[C@](C(=O)O)(O1)[C@H](OC(=O)/C=C/[C@@H](C)C[C@@H](C)CC)[C@H]2O)[C@@H](OC(C)=O)[C@H](C)Cc1ccccc1` yielded an IC50 (Squalene synthase) of 60 nM.
